Data published in patent US20090318351A1, “METHOD OF TREATING ACUTE ST-ELEVATION MYOCARDIAL INFARCTION WITH A DELTA PKC ANTAGONIST” (priority 2008, published 2009).
“Also recorded” adds a separate entry of the source. Ends that are not written are not given here.

What was measured:
[1] = Stability of linear versus disulfide linked peptides in PBS solution; assay type: physicochemical; details: conditions described in Example 15 (so in the source), FIGS. 8, 9 and 15
Experimental: The peptides were placed in solution at 0.1 mg/ml in PBS (pH 7.4) at 37° C.
Linear and disulfide bond linked versions of PKC-βI and PKC-βII peptide compositions were incubated under the conditions described in Example 15.
In particular, the Asn residues at position 7 of the β-I and β-II peptides and the Gln at position 2 of the β-II peptide. These linear peptide compositions were modified by substituting the Gly immediately C-terminal to the Asn with either Leu in the β-I peptide composition or Gly to Ile in the β-II peptide composition. The Gln at position 2 of the β-II peptide composition was also substituted with a Glu residue. The stability of the peptides was studied under the conditions described in Example 15.

rat heart = assay: Rat heart model (Langendorff assay) of ischemic damage, CK release; details: Langendorff in vitro post-ischemia model, 10 minutes perfusion, FIG. 16
Experimental: The ability of the capped composition to inhibit ischemic damage in a rat heat model (Langendorff Assay) was evaluated versus the uncapped form.

[2] = 100 μg/ml, room temperature, LC/MS
Experimental: The effect of N-terminal acetylation and C-terminal amidation on compound stability in plasma and serum from rat and human was studied. The compounds were tested in the plasma/serum at a concentration of 100 μg/ml. The solutions were incubated at room temperature, precipitated with 5% TCA, and then the supernatant was neutralized with ammonium acetate. The peptides were then analyzed by LC/MS.

[3] = Effect of D-peptides on plasma stability of KAI-9706
Experimental: KAI-9706 was engineered with D-amino acids to determine their impact on peptide composition stability. Unmodified KAI-9706 was compared to a peptide composition with the same amino acid sequence, however the amino acids used were d-enantiomers instead of 1-amino acids. A retro-inverso version and a scrambled version of the peptide composition were also prepared.

[4] = tested on: patients with acute anterior STEMI; assay: DELTA MI trial: intracoronary KAI-9803 during primary PCI for acute anterior STEMI
Experimental: Safety and biomarker end points were assessed.
The following example is a clinical treatment of acute ST-elevation myocardial infarction (STEMI) using the compositions and methods provided in the invention.
Patients were recommended to receive aspirin (162-325 mg orally), a thienopyridine loading dose (clopidogrel 300-600 mg or ticlopidine 500 mg), unfractionated heparin, and glycoprotein IIb-IIIa inhibitors during PCI. […] After verifying the final angiographic inclusion criteria during diagnostic angiography, randomization and study drug preparation occurred in the catheterization laboratory before the beginning of the PCI procedure.
Study drug was reconstituted into a clear solution at 1 of 4 concentrations using serial dilutions with 0.9% sodium chloride solution. Study drug was administered during PCI in the following sequence. First, the guidewire was passed across the obstruction in the left anterior descending (LAD) infarct vessel and an over-the-wire balloon catheter was positioned at the level of the obstruction. Second, the guidewire was removed, and dilute contrast was injected to confirm positioning of the catheter tip downstream from the obstruction and to assess patency of the distal vessel. The contrast injection was followed by a saline flush, and the guidewire was reinserted. Third, the balloon was inflated, and, after removing the guidewire, 2 mL of blinded study drug were hand injected slowly into the distal vascular bed over at least 1 minute. Fourth, the guidewire was readvanced through the catheter into the distal vessel, and the balloon was deflated. Finally, after antegrade epicardial coronary flow was re-established following initial balloon inflations, 3 mL of blinded study drug were injected through the guide catheter positioned at the ostium of the left main coronary artery. The PCI procedure was then completed according to standard technique.
After initial informed consent was obtained and before diagnostic angiography was performed, a continuous digital 12-lead ECG monitor (NEMON 180+, Northeast Monitoring, Natick, Mass.) was applied and baseline serum samples were obtained for analyses of cardiac markers including creatine kinase (CK and CK-MB), troponin T, and N-terminal pro-brain natriuretic peptide (BNP).
After completion of the PCI procedure, angiography was performed a minimum of 10 minutes after the final balloon inflation and a minimum of 30 minutes after antegrade epicardial flow was re-established to measure TIMI (Thrombolysis in Myocardial Infarction) flow grade, corrected TIMI frame count, and TIMI myocardial perfusion grade (TMPG). TMPG was assessed approximately 30 minutes after administration of study drug and prior to intracoronary administration of adenosine. Coronary flow reserve was determined by measuring corrected TIMI frame count before and after administration of 18-24 mcg of intracoronary adenosine. A left ventriculogram was performed to assess ejection fraction.
The continuous ECG monitor was removed after 24 hours of data collection. Continuous ST-segment recovery analysis was performed in a blinded core laboratory. End points assessed from measurement of continuous 12-lead ECGs included time to stable ST recovery, % ST-segment resolution at serial static time points, and ST recovery time-trend curve area defined by summated ST-segment resolution and re-elevation integrated over the first 3 hours following PCI.
Blood collection for CK-MB levels was performed at 3-6 hours, 6-12 hours, 18-24 hours, and 36 hours after randomization.

[5] = Plasma stability of capped peptides (KAI-9706 modified at amino and carboxy termini); details: rat
Experimental: Plasma stability of capped peptides was compared. KAI-9706 was modified step-wise at its amino and carboxy termini. Plasma stability as measured by the percent of peptide composition remaining after 15 minutes.

Ac-GEEVIRNISGYGRKKRRQRRR-NH2 [modified linear β-II peptide composition]
stability in solution of PKC-βI and PKC-βII peptide compositions [1]: served to stabilize; also recorded: improved stability

KAI-1355: truncated version of KAI-9803 in which the carboxy terminal leucine was removed; cargo CSFNSYELGS
potency in protecting cardiac tissue from ischemia (creatine kinase release) (rat heart): potency comparable to that of the full length KAI-9803

Ac-EAVSLKPTGGYGRKKRRQRRR-NH2 [KP-1678]
stability in human serum [2]: increased stability

CC[C@@H](C)[C@@H](NC(=O)[C@H]1CCCN1C(=O)[C@@H](C)NC(=O)[C@@H](CC(=O)O)NC(=O)[C@@H](Cc1c[nH]cn1)NC(=O)[C@H](N)CSSC[C@H](N)C(=O)N[C@@H](Cc1ccc(O)cc1)C(=O)NCC(=O)N[C@@H](CCCNC(=N)N)C(=O)N[C@@H](CCCCN)C(=O)N[C@@H](CCCCN)C(=O)N[C@@H](CCCNC(=N)N)C(=O)N[C@@H](CCCNC(=N)N)C(=O)N[C@@H](CCC(N)=O)C(=O)N[C@@H](CCCNC(=N)N)C(=O)N[C@@H](CCCNC(=N)N)C(=O)N[C@@H](CCCNC(=N)N)C(=O)O)C(=O)NCC(=O)N[C@H](Cc1ccc(O)cc1)C(=O)N[C@H](CC(=O)O)C(=O)O [KAI-9706 carrier All-L cargo All-D]
remaining at 0.25 h [3]: 0%

CC(C)C[C@H](NC(=O)[C@H](CO)NC(=O)CNC(=O)[C@H](CC(C)C)NC(=O)[C@H](CCC(=O)O)NC(=O)[C@H](Cc1ccc(O)cc1)NC(=O)[C@H](CO)NC(=O)[C@H](CC(N)=O)NC(=O)[C@H](Cc1ccccc1)NC(=O)[C@H](CO)NC(=O)[C@@H](N)CSSC[C@H](N)C(=O)N[C@@H](Cc1ccc(O)cc1)C(=O)NCC(=O)N[C@@H](CCCNC(=N)N)C(=O)N[C@@H](CCCCN)C(=O)N[C@@H](CCCCN)C(=O)N[C@@H](CCCNC(=N)N)C(=O)N[C@@H](CCCNC(=N)N)C(=O)N[C@@H](CCC(N)=O)C(=O)N[C@@H](CCCNC(=N)N)C(=O)N[C@@H](CCCNC(=N)N)C(=O)N[C@@H](CCCNC(=N)N)C(=O)O)C(=O)O [KAI-9803]
investigator-reported CHF events ([4]; active study drug group, through 6 months, number of events): 21
incidence of serious adverse events versus placebo ([4]; all cohorts): similar
changes in clinical laboratory values from baseline through 48 hours versus placebo ([4]; blood counts, electrolytes, BUN, creatinine, liver function tests): no differences
incidence of serious adverse events through 30 days ([4]; cohort 1 (0.05 mg)): 30.4%
incidence of serious adverse events through 30 days ([4]; cohort 2 (0.5 mg)): 16.0%
incidence of serious adverse events through 30 days ([4]; cohort 3 (1.25 mg)): 19.2%
incidence of serious adverse events through 30 days ([4]; cohort 4 (5.0 mg)): 35.7%
median maximum change in the QT interval from baseline until after the second dose ([4]; pooled active study drug): 16.9 ms

CC[C@H](C)[C@H](NC(=O)[C@@H]1CCCN1C(=O)[C@H](C)NC(=O)[C@H](CC(=O)O)NC(=O)[C@H](Cc1c[nH]cn1)NC(=O)[C@@H](N)CSSC[C@@H](N)C(=O)N[C@H](Cc1ccc(O)cc1)C(=O)NCC(=O)N[C@H](CCCNC(=N)N)C(=O)N[C@H](CCCCN)C(=O)N[C@H](CCCCN)C(=O)N[C@H](CCCNC(=N)N)C(=O)N[C@H](CCCNC(=N)N)C(=O)N[C@H](CCC(N)=O)C(=O)N[C@H](CCCNC(=N)N)C(=O)N[C@H](CCCNC(=N)N)C(=O)N[C@H](CCCNC(=N)N)C(=O)O)C(=O)NCC(=O)N[C@@H](Cc1ccc(O)cc1)C(=O)N[C@@H](CC(=O)O)C(=O)O [KAI-9706 carrier All-D cargo All-L]
remaining at 0.25 h [3]: 88%

CC[C@@H](C)[C@@H](NC(=O)[C@H]1CCCN1C(=O)[C@@H](C)NC(=O)[C@@H](CC(=O)O)NC(=O)[C@@H](Cc1c[nH]cn1)NC(=O)[C@H](N)CSSC[C@@H](N)C(=O)N[C@H](Cc1ccc(O)cc1)C(=O)NCC(=O)N[C@H](CCCNC(=N)N)C(=O)N[C@H](CCCCN)C(=O)N[C@H](CCCCN)C(=O)N[C@H](CCCNC(=N)N)C(=O)N[C@H](CCCNC(=N)N)C(=O)N[C@H](CCC(N)=O)C(=O)N[C@H](CCCNC(=N)N)C(=O)N[C@H](CCCNC(=N)N)C(=O)N[C@H](CCCNC(=N)N)C(=O)O)C(=O)NCC(=O)N[C@H](Cc1ccc(O)cc1)C(=O)N[C@H](CC(=O)O)C(=O)O [KAI-9706 carrier All-D cargo All-D]
remaining at 0.25 h [3]: 100%

CC[C@H](C)[C@H](NC(=O)[C@@H]1CCCN1C(=O)[C@H](C)NC(=O)[C@H](CC(=O)O)NC(=O)[C@H](Cc1c[nH]cn1)NC(=O)[C@@H](N)CSSC[C@H](N)C(=O)N[C@@H](Cc1ccc(O)cc1)C(=O)NCC(=O)N[C@@H](CCCNC(=N)N)C(=O)N[C@@H](CCCCN)C(=O)N[C@@H](CCCCN)C(=O)N[C@@H](CCCNC(=N)N)C(=O)N[C@@H](CCCNC(=N)N)C(=O)N[C@@H](CCC(N)=O)C(=O)N[C@@H](CCCNC(=N)N)C(=O)N[C@@H](CCCNC(=N)N)C(=O)N[C@@H](CCCNC(=N)N)C(=O)O)C(=O)NCC(=O)N[C@@H](Cc1ccc(O)cc1)C(=O)N[C@@H](CC(=O)O)C(=O)O [KAI-9706]
remaining at 0.25 h [5]: 1%
% parent remaining at 15 mins ([3]; All-L, All-D, scrambled or retro-inverso (R/I) carrier and cargo): 1%

Ac-GKLFIMNLSGYGRKKRRQRRR-NH2 [modified linear β-I peptide composition]
stability in solution of PKC-βI and PKC-βII peptide compositions [1]: served to stabilize; also recorded: stabilized

EAVSLKPTGGYGRKKRRQRRR-NH2 [KP-1633]
stability in human serum [2]: increased stability
